{"source": "patent US20240140953A1", "about": "“INHIBITORS OF MENIN-MLL INTERACTION” (BIOMEA FUSION, INC., priority 2018, published 2024)", "key": {"MOLM-13 [1]": {"test_system": "MOLM-13", "test": "Long term proliferation assay (Table 3A), MOLM-13", "assay_type": "cell-based", "conditions": "Homo sapiens", "description": "(§1) Example 5b: IC50 determination of compounds of invention in various cell lines (Long Term Proliferation Assay)\n(§2) The following 5 cell lines are used or can be used for the long term proliferation assay.\n(§3) Compounds of invention are tested in the 5 suspension lines by 14-day long-term proliferation assay.\n(§4) The compound is tested in 10-pt dose titration (client will determine the starting concentration and the dilution scheme) and the final DMSO concentration is kept at 0.2%.\n(§5) Vehicle and media control are also included. All treatments are done in triplicate.\n(§6) 3 plates are used for each cell line and 15 plates are used for the 5 cell lines.\n(§7) • 1) On Day 0, in a flat bottom 96-well plate, add 100 μL of cells per well at the densities optimized. • 2) Prepare compounds in DMSO at 500× final concentration. Dilute the compounds with DMSO at the dilution. • 3) Dilute the compounds in media at 3×final concentration. Add 50 μL of compound or DMSO at 3× final concentration to each well. Final volume in each well is 150 μL, and final concentration of DMSO is 0.2%. Also include 3 untreated control wells, by adding 50 μL of media alone. 4) Incubate plates for 96 hours. • 5) Count the cells using the Acumen, with capabilities for 96-well plates. Pipette cells up and down to mix in each well, and add desired volume of cells to a new flat bottom poly-D-lysine 96-well plate. Add Calcein AM at 1 μM final concentration. Let cells sit at RT for 10 mins followed by a quick spin to get cells settled on the bottom of the wells. Incubate the plate for additional 40 mins in the incubator. Take out the plate and read by Acumen. Calculate the cell numbers taken into account the dilution factors. • 6) Split the master plate. To do this take the total viable cell count calculated using step 5). Take the average of the replicates for each dose in order to be used in splitting the cells. • 7) Use a 96 well V-bottom plate to spin down the cells to remove old media and compound to split the cells. Based on the split ratio place the proper amount of media and cells into the V-bottom plate, and spin the plate at 1100 rpm for 5 minutes. • 8) Following the spin remove the media, careful not to disturb the cellpellet. • 9) Re-suspend pellet in 100 μL fresh media, and add to a new 96-well flat bottom plate. • 10) Add fresh compound, in the same manner as Step 3). • 11) Incubate plates for 72 hours. Repeat steps 5)-10) on Day 7. • 12) Incubate plates for 96 hours. Repeat Step 5)-10) on Day 11. • 13) Incubate 72 hours and repeat step 5) to take a final count. • 14) Data Analysis\n(§8) To calculate growth for days 4, 7, 11, and 14: • Calculate the split factor for day 4 to 7, day 7 to 11, and day 11-14."}, "MV-4-11": {"test_system": "MV-4-11", "test": "Long term proliferation assay (Table 3A), MV-4-11", "assay_type": "cell-based", "conditions": "Homo sapiens, MV4-11", "description": "as §1, §2, §3, §4, §5, §6, §7, §8"}, "Menin-MLL": {"biological_target": "Menin-MLL (Homo sapiens (Human), UniProt O00255)", "sequence (O00255 whole entry)": "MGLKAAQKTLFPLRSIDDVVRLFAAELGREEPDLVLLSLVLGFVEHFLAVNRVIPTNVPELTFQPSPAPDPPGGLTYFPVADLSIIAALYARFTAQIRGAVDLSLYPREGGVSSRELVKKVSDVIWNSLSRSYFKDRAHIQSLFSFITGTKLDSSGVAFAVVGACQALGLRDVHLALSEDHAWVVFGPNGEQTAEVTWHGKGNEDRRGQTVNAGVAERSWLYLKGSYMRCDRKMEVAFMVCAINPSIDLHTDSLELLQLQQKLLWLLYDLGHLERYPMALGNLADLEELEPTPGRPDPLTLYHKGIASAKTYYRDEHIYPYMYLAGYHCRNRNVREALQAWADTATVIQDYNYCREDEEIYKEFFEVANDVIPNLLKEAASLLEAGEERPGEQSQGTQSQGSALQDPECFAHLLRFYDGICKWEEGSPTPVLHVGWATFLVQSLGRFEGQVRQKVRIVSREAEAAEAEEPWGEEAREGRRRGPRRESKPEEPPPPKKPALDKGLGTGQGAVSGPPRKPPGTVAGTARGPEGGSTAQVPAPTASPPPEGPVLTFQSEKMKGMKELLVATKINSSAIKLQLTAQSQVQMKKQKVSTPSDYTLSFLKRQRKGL", "test": "Menin-MLL in vitro inhibitory activity (Example 101a, Table 2)", "assay_type": "cell-based"}, "menin": {"biological_target": "menin (Homo sapiens (Human), UniProt O00255)", "sequence (O00255 whole entry, species assumed)": "as the sequence (O00255 whole entry) above", "test": "Kd (Table 3A)", "assay_type": "binding"}, "MV4-11 [2]": {"test_system": "MV4-11", "test": "Long term proliferation, InCell (Table 3C), MV4-11", "assay_type": "cell-based", "conditions": "Homo sapiens, MV4-11, InCell", "description": "as §3, §4, §5, §7, §8"}, "OCI-AML-3 [3]": {"test_system": "OCI-AML-3", "test": "Long term proliferation, Cell Titer-Glo (Table 3B), OCI-AML-3", "assay_type": "cell-based", "conditions": "Homo sapiens, OCI-AML-3, Cell Titer-Glo"}, "OCI-AML-3 [4]": {"test_system": "OCI-AML-3", "test": "Long term proliferation, InCell (Table 3C), OCI-AML-3", "assay_type": "cell-based", "conditions": "Homo sapiens, OCI-AML-3, InCell", "description": "as §3, §4, §5, §7, §8"}, "KG-1 [5]": {"test_system": "KG-1", "test": "Long term proliferation, Cell Titer-Glo (Table 3B), KG-1", "assay_type": "cell-based", "conditions": "Homo sapiens, KG-1, Cell Titer-Glo"}, "MV4-11 [6]": {"test_system": "MV4-11", "test": "Long term proliferation, Cell Titer-Glo (Table 3B), MV4-11", "assay_type": "cell-based", "conditions": "Homo sapiens, MV4-11, Cell Titer-Glo"}, "MOLM-13 [7]": {"test_system": "MOLM-13", "test": "Long term proliferation, Cell Titer-Glo (Table 3B), MOLM-13", "assay_type": "cell-based", "conditions": "Homo sapiens, MOLM-13, Cell Titer-Glo"}, "MOLM-13 [8]": {"test_system": "MOLM-13", "test": "Long term proliferation, InCell (Table 3C), MOLM-13", "assay_type": "cell-based", "conditions": "Homo sapiens, MOLM-13, InCell", "description": "as §3, §4, §5, §7, §8"}, "KG-1 [9]": {"test_system": "KG-1", "test": "Long term proliferation, InCell (Table 3C), KG-1", "assay_type": "cell-based", "conditions": "Homo sapiens, KG-1, InCell", "description": "as §3, §4, §5, §7, §8"}, "[10]": {"conditions": "96 h, MOLM-13, Day 4, read-out: MOLM-13 Day 4 IC50"}, "[11]": {"conditions": "264 h, MOLM-13, Day 11, read-out: MOLM-13 Day 11 IC50"}, "[12]": {"conditions": "MV-4-11, Day 4, read-out: MV-4-11 Day 4 IC50"}, "[13]": {"conditions": "MV-4-11, Day 11, read-out: MV-4-11 Day 11 IC50"}, "[14]": {"conditions": "96 h, Day 4, read-out: Day 4 IC50"}, "[15]": {"conditions": "264 h, Day 11, read-out: Day 11 IC50"}, "[16]": {"conditions": "168 h, Day 7, read-out: Day 7 IC50"}, "[17]": {"conditions": "336 h, Day 14, read-out: Day 14 IC50"}}, "note": "Like-named read-outs stand apart in the source and are kept apart here."}
{"smiles": "O=C(Nc1ccc(-c2cc3c(N4CCOCC4)ncnc3[nH]2)cc1)Nc1cc(-c2cccnc2)no1", "note": "[Compound 2, 1-(4-(4-morpholino-7H-pyrrolo[2,3-d]pyrimidin-6-yl)phenyl)-3-(3-(pyridin-3-yl)isoxazol-5-yl)urea]", "values": [{"measurement": "IC50", "setting": "MOLM-13 [1]; [10]", "value": 0.074, "unit": "µM"}, {"measurement": "IC50", "setting": "MOLM-13 [1]; [11]", "value": 0.054, "unit": "µM"}, {"measurement": "IC50", "setting": "MV-4-11; [12]", "value": 0.174, "unit": "µM"}, {"measurement": "IC50", "setting": "MV-4-11; [13]", "value": 0.055, "unit": "µM"}, {"measurement": "IC50", "setting": "Menin-MLL", "value": 0.24, "unit": "µM"}, {"measurement": "Kd", "setting": "menin", "value": "> 1", "unit": "µM"}]}
{"smiles": "O=C(Nc1ccc(-c2cc3c(N4CCOCC4)ncnc3[nH]2)cc1)Nc1cc(-c2ccncc2)no1", "note": "[Compound 8, 1-{4-[4-(morpholin-4-yl)-7H-pyrrolo[2,3-d]pyrimidin-6-yl]phenyl}-3-[3-(pyridin-4-yl)-1,2-oxazol-5-yl]urea]", "values": [{"measurement": "IC50", "setting": "MOLM-13 [1]; [10]", "value": 0.224, "unit": "µM"}, {"measurement": "IC50", "setting": "MOLM-13 [1]; [11]", "value": 0.055, "unit": "µM"}, {"measurement": "IC50", "setting": "MV4-11 [2]; [14]", "value": 0.35, "unit": "µM"}, {"measurement": "IC50", "setting": "MV4-11 [2]; [15]", "value": 0.28, "unit": "µM"}, {"measurement": "IC50", "setting": "OCI-AML-3 [3]; [14]", "value": 0.59, "unit": "µM"}, {"measurement": "IC50", "setting": "OCI-AML-3 [3]; [16]", "value": 0.56, "unit": "µM"}, {"measurement": "IC50", "setting": "OCI-AML-3 [3]; [15]", "value": 0.55, "unit": "µM"}, {"measurement": "IC50", "setting": "OCI-AML-3 [3]; [17]", "value": 0.55, "unit": "µM"}, {"measurement": "IC50", "setting": "OCI-AML-3 [4]; [14]", "value": 0.49, "unit": "µM"}, {"measurement": "IC50", "setting": "OCI-AML-3 [4]; [15]", "value": 0.54, "unit": "µM"}, {"measurement": "IC50", "setting": "KG-1 [5]; [14]", "value": 4.9, "unit": "µM"}, {"measurement": "IC50", "setting": "KG-1 [5]; [16]", "value": 2.95, "unit": "µM"}, {"measurement": "IC50", "setting": "KG-1 [5]; [15]", "value": 2.14, "unit": "µM"}, {"measurement": "IC50", "setting": "KG-1 [5]; [17]", "value": 0.68, "unit": "µM"}, {"measurement": "IC50", "setting": "MV4-11 [6]; [14]", "value": 0.54, "unit": "µM"}, {"measurement": "IC50", "setting": "MV4-11 [6]; [16]", "value": 0.1, "unit": "µM"}, {"measurement": "IC50", "setting": "MV4-11 [6]; [15]", "value": 0.2, "unit": "µM"}, {"measurement": "IC50", "setting": "MV4-11 [6]; [17]", "value": 0.06, "unit": "µM"}, {"measurement": "IC50", "setting": "MV-4-11; [12]", "value": 0.355, "unit": "µM"}, {"measurement": "IC50", "setting": "MV-4-11; [13]", "value": 0.071, "unit": "µM"}, {"measurement": "IC50", "setting": "MOLM-13 [7]; [14]", "value": 0.32, "unit": "µM"}, {"measurement": "IC50", "setting": "MOLM-13 [7]; [16]", "value": 0.2, "unit": "µM"}, {"measurement": "IC50", "setting": "MOLM-13 [7]; [15]", "value": 0.15, "unit": "µM"}, {"measurement": "IC50", "setting": "MOLM-13 [7]; [17]", "value": 0.25, "unit": "µM"}, {"measurement": "Kd", "setting": "menin", "value": 0.25, "unit": "µM"}, {"measurement": "IC50", "setting": "MOLM-13 [8]; [14]", "value": 0.37, "unit": "µM"}, {"measurement": "IC50", "setting": "MOLM-13 [8]; [15]", "value": 0.19, "unit": "µM"}, {"measurement": "IC50", "setting": "KG-1 [9]; [14]", "value": 3.24, "unit": "µM"}, {"measurement": "IC50", "setting": "KG-1 [9]; [15]", "value": 2.09, "unit": "µM"}]}
